Source: US20240218022A1, “ANTI-VISTA MACROCYCLIC PEPTIDES AND COMPOSITIONS” (BRISTOL-MYERS SQUIBB COMPANY, priority 2022, published 2024)
Where two headings read alike, the source gives them in different places. Starred links: 1 amine or outer side, 2 acyl side, 3 side chain; linkers in the order of their positions; H or OH if unused. Positions of bridges follow the written chain, without caps; N, C: chain ends. Non-standard residues stand in square brackets, D forms with d. Residues, ends and D or L forms follow the SMILES beside them. ξ: configuration not given here. Phe(3-Cl) = N[C@@H](Cc1cccc(Cl)c1)C(=O)O; Phe(3-Me) = Cc1cccc(C[C@H](N)C(=O)O)c1; γGlu = O=C(O)[C@H](CCC(=O)[*:2])N[*:1]; 2Nal = N[C@@H](Cc1ccc2ccccc2c1)C(=O)O; βAsp = O=C(O)[C@H](CC(=O)[*:2])N[*:1]; NMeIle(3ξ) = CCC(C)[C@H](NC)C(=O)O; Tic = O=C(O)[C@@H]1Cc2ccccc2CN1; Aad = N[C@@H](CCCC(=O)O)C(=O)O; Cit = NC(=O)NCCC[C@H](N)C(=O)O; Ahp(2) = CCCCC[C@H](N)C(=O)O; NMeNle = CCCC[C@H](NC)C(=O)O; Tle = CC(C)(C)[C@H](N)C(=O)O; NHexGly = CCCCCCNCC(=O)O; NMeA = CN[C@@H](C)C(=O)O; Nle = CCCC[C@H](N)C(=O)O; Orn = NCCC[C@H](N)C(=O)O; Aun = NCCCCCCCCCCC(=O)O; AEEA = NCCOCCOCC(=O)O

Molecular target: T1, mouse VISTA (mVISTA) (Mus musculus, UniProt Q9D659)
T1 construct: expressed in transfected cells; host or cells: Human embryonic kidney 293T cells
T1 sequence (Q9D659 33-308): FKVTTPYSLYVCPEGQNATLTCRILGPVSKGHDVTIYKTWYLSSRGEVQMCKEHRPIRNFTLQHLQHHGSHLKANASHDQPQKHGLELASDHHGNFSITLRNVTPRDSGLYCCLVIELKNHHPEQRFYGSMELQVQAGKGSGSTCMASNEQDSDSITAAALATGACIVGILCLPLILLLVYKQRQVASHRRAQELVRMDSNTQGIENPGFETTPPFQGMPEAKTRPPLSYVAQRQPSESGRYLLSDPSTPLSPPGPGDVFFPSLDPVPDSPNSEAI
Assay: Cell-Based Binding High-Content Assay For mVISTA (HC CBA mVISTA)
Summary of the method: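 Read-out: Alexa 647–streptavidin signal imaged on fixed, Hoechst-stained mVISTA-293T cells, with IC50 taken from a four-parameter logistic curve. Compounds competed with 2 nM biotinylated peptide for 30 min at room temperature, tested under both no-wash and wash (1 h compound, media exchange, 1 h) formats.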

[1] = cell-based binding high-content assay, mVISTA, the 16th table, read-out: HC CBA mVISTA IC50
[2] = 293T cells expressing mouse VISTA, competition with biotinylated peptide (2 nM), read-out: HC CBA mVISTA IC50

## CCCCCCN1CC(=O)N[C@@H](Cc2ccc(O)cc2)C(=O)N[C@@H](CCCC(=O)O)C(=O)N[C@@H](CC(N)=O)C(=O)N[C@@H](CCCN)C(=O)N(C)[C@@H](CCCC)C(=O)N[C@@H](CCCCC)C(=O)N2CCC[C@H]2C(=O)N[C@@H](C(C)(C)C)C(=O)N[C@@H](CO)C(=O)N[C@H](C(=O)N[C@@H](CC(=O)NCCOCCOCC(=O)N[C@@H](CC(=O)O)C(=O)NCCOCCOCC(=O)NCCCCCCCCCCC(=O)O)C(=O)O)CSCC(=O)N[C@@H](Cc2ccccc2)C(=O)N[C@@H](Cc2ccc(O)cc2)C(=O)N[C@@H](CC(=O)O)C1=O [compound 2056] ({CH2CO}-FYD[NHexGly]Y[Aad]N[Orn][NMeNle][Ahp(2)]P[Tle]SC[βAsp][AEEA]D[AEEA][Aun]-OH; thioether N-14)
cell-based binding high-content assay, mVISTA, read-out: HC CBA miPr ISTA IC50
  IC50: 26.1 nM

## CCCCCCN1CC(=O)N[C@@H](Cc2ccc(O)cc2)C(=O)N[C@@H](CCCC)C(=O)N[C@@H](CC(N)=O)C(=O)N[C@@H](CCCNC(=N)N)C(=O)N[C@@H](CC(C)C)C(=O)N[C@@H](CCCCC)C(=O)N2CCC[C@H]2C(=O)N[C@@H](C(C)C)C(=O)N[C@@H](CC(=O)O)C(=O)N[C@H](C(=O)N[C@@H](Cc2c[nH]c3ccccc23)C(N)=O)CSCC(=O)N[C@@H](Cc2ccc3ccccc3c2)C(=O)N[C@@H](Cc2ccc(O)cc2)C(=O)N[C@@H](CC(=O)O)C1=O [Ex 1321] ({CH2CO}-[2Nal]YD[NHexGly]Y[Nle]NRL[Ahp(2)]PVDCW-NH2; thioether N-14)
[1]
  IC50: 15.9 nM

## CCCCCCN1CC(=O)N[C@@H](Cc2ccc(O)cc2)C(=O)N[C@@H](CCCC)C(=O)N[C@@H](CC(N)=O)C(=O)N[C@@H](CCCNC(=N)N)C(=O)N(C)[C@@H](CCCC)C(=O)N[C@@H](CCCCC)C(=O)N2CCC[C@H]2C(=O)N[C@@H](C(C)(C)C)C(=O)N[C@@H](CO)C(=O)N[C@H](C(=O)NCCOCCOCC(=O)N[C@@H](CCC(=O)NCCOCCOCC(=O)NCCCCCCCCCCC(=O)O)C(=O)O)CSCC(=O)N[C@@H](Cc2ccc3ccccc3c2)C(=O)N[C@@H](Cc2ccc(O)cc2)C(=O)N[C@@H](CC(=O)O)C1=O [compound 2227] ({CH2CO}-[2Nal]YD[NHexGly]Y[Nle]NR[NMeNle][Ahp(2)]P[Tle]SC[AEEA][γGlu][AEEA][Aun]-OH; thioether N-14)
read-out: HC CBA mVISTA IC50
  IC50: 41.5 nM

## CCCCCCN1CC(=O)N[C@@H](Cc2ccc(O)cc2)C(=O)N[C@@H](CC(C)C)C(=O)N[C@@H](CC(N)=O)C(=O)N[C@@H](CCCNC(=N)N)C(=O)N(C)[C@@H](CCCC)C(=O)N[C@@H](CCCCC)C(=O)N2CCC[C@H]2C(=O)N[C@@H](C(C)(C)C)C(=O)N[C@@H](CO)C(=O)N[C@H](C(=O)NCC(N)=O)CSCC(=O)N[C@@H](Cc2ccccc2)C(=O)N[C@@H](Cc2cccc(Cl)c2)C(=O)N[C@@H](CC(=O)O)C1=O [compound 1339] ({CH2CO}-F[Phe(3-Cl)]D[NHexGly]YLNR[NMeNle][Ahp(2)]P[Tle]SCG-NH2; thioether N-14)
read-out: HC CBA mVISTA IC50
  IC50: 31.6 nM

## CCCCCCN1CC(=O)N[C@@H](Cc2ccc(O)cc2)C(=O)N[C@@H](CCCC)C(=O)N[C@@H](CC(N)=O)C(=O)N[C@@H](CCCNC(=N)N)C(=O)N(C)[C@@H](CCCC)C(=O)N[C@@H](CCCCC)C(=O)N2CCC[C@H]2C(=O)N[C@@H](C(C)C)C(=O)N[C@@H](CCCNC(=N)N)C(=O)N[C@H](C(=O)NCC(=O)O)CSCC(=O)N[C@@H](Cc2ccc3ccccc3c2)C(=O)N[C@@H](Cc2c[nH]c3ccccc23)C(=O)N[C@@H](CC(=O)O)C1=O [compound 1246] ({CH2CO}-[2Nal]WD[NHexGly]Y[Nle]NR[NMeNle][Ahp(2)]PVRCG-OH; thioether N-14)
cell-based binding high-content assay, mVISTA, the 15th table, read-out: HC CBA mVISTA IC50
  IC50: 25.1 nM

## CCCCCCN1CC(=O)N[C@@H](Cc2ccc(O)cc2)C(=O)N[C@@H](CCCC)C(=O)N[C@@H](CC(N)=O)C(=O)N[C@@H](CCCNC(=N)N)C(=O)N(C)[C@@H](CCCC)C(=O)N[C@@H](CCCCC)C(=O)N2CCC[C@H]2C(=O)N[C@@H](C(C)C)C(=O)N[C@@H](CC(=O)O)C(=O)N[C@H](C(=O)NCC(=O)O)CSCC(=O)N[C@@H](Cc2cccc(C)c2)C(=O)N[C@@H](Cc2c[nH]c3ccccc23)C(=O)N[C@@H](CC(=O)O)C1=O [compound 1442] ({CH2CO}-[Phe(3-Me)]WD[NHexGly]Y[Nle]NR[NMeNle][Ahp(2)]PVDCG-OH; thioether N-14)
The 19th table, scaffold drawing 22, read-out: HC CBA mVISTA IC50
  IC50: 27.7 nM

## CCCCCCN1CC(=O)N[C@@H](Cc2ccc(O)cc2)C(=O)N[C@@H](CCCC)C(=O)N[C@@H](CC(N)=O)C(=O)N[C@@H](CCCNC(=N)N)C(=O)N[C@@H](CC(C)C)C(=O)N[C@@H](CCCCC)C(=O)N2CCC[C@H]2C(=O)N[C@@H](C(C)C)C(=O)N[C@@H](CC(=O)O)C(=O)N[C@H](C(=O)N[C@@H](CC(N)=O)C(N)=O)CSCC(=O)N[C@@H](Cc2ccc3ccccc3c2)C(=O)N[C@@H](Cc2ccc(O)cc2)C(=O)N[C@@H](CC(=O)O)C1=O [Ex 1311] ({CH2CO}-[2Nal]YD[NHexGly]Y[Nle]NRL[Ahp(2)]PVDCN-NH2; thioether N-14)
[1]
  IC50: 8.3 nM

## CCCCCCN1CC(=O)N[C@@H](Cc2ccc(O)cc2)C(=O)N[C@@H](CCCC)C(=O)N[C@@H](CC(N)=O)C(=O)N[C@@H](CCCNC(=N)N)C(=O)N(C)[C@@H](C(C)CC)C(=O)N[C@@H](CCCCC)C(=O)N2CCC[C@H]2C(=O)N[C@@H](C(C)C)C(=O)N[C@@H](CC(=O)O)C(=O)N[C@H](C(=O)NCC(=O)O)CSCC(=O)N[C@@H](Cc2ccccc2)C(=O)N[C@@H](Cc2c[nH]c3ccccc23)C(=O)N[C@@H](CC(=O)O)C1=O (some centres unmarked) [Example 1367] ({CH2CO}-FWD[NHexGly]Y[Nle]NR[NMeIle(3ξ)][Ahp(2)]PVDCG-OH; thioether N-14)
read-out: HC CBA mVISTA IC50
  IC50: 11.1 nM

## CCCCCCN1CC(=O)N[C@@H](Cc2ccc(O)cc2)C(=O)N[C@@H](CCCC)C(=O)N[C@@H](CC(N)=O)C(=O)N[C@@H](CCCNC(N)=O)C(=O)N2Cc3ccccc3C[C@H]2C(=O)N[C@@H](CCCCC)C(=O)N2CCC[C@H]2C(=O)N[C@@H](C(C)C)C(=O)N[C@@H](CO)C(=O)N[C@H](C(=O)NCC(N)=O)CSCC(=O)N[C@@H](Cc2ccc3ccccc3c2)C(=O)N[C@@H](Cc2ccc(O)cc2)C(=O)N[C@@H](CC(=O)O)C1=O [Ex 1306] ({CH2CO}-[2Nal]YD[NHexGly]Y[Nle]N[Cit][Tic][Ahp(2)]PVSCG-NH2; thioether N-14)
[1]
  IC50: 25.2 nM

## CCCCCCN1CC(=O)N[C@@H](Cc2ccc(O)cc2)C(=O)N[C@@H](CCCCC)C(=O)N[C@@H](CC(N)=O)C(=O)N[C@@H](CCCNC(=N)N)C(=O)N[C@@H](CC(C)C)C(=O)N[C@@H](CCCCC)C(=O)N2CCC[C@H]2C(=O)N[C@@H](C(C)C)C(=O)N[C@@H](C)C(=O)N[C@H](C(=O)NCC(N)=O)CSCC(=O)N[C@@H](Cc2ccccc2)C(=O)N[C@@H](Cc2ccc(O)cc2)C(=O)N[C@@H](CC(=O)O)C1=O [Example 1006] ({CH2CO}-FYD[NHexGly]Y[Ahp(2)]NRL[Ahp(2)]PVACG-NH2; thioether N-14)
[2]
  IC50: 38.6 nM

## CCCCCCN1CC(=O)N[C@@H](Cc2ccc(O)cc2)C(=O)N[C@@H](CCCC)C(=O)NCC(=O)N[C@@H](CCCNC(=N)N)C(=O)N[C@@H](CC(C)C)C(=O)N[C@@H](CCCCC)C(=O)N2CCC[C@H]2C(=O)N[C@@H](C(C)C)C(=O)N[C@@H](CC(=O)O)C(=O)N[C@H](C(=O)NCC(N)=O)CSCC(=O)N[C@@H](Cc2ccccc2)C(=O)N[C@@H](Cc2ccc(O)cc2)C(=O)N[C@@H](CC(=O)O)C1=O [Example 1017] ({CH2CO}-FYD[NHexGly]Y[Nle]GRL[Ahp(2)]PVDCG-NH2; thioether N-14)
[2]
  IC50: 34 nM

## CCCCCCN1CC(=O)N[C@@H](Cc2ccc(O)cc2)C(=O)N[C@@H](CCCC)C(=O)NCC(=O)N[C@@H](CCCNC(=N)N)C(=O)N[C@@H](CC(C)C)C(=O)N[C@@H](CCCCC)C(=O)N2CCC[C@H]2C(=O)N[C@@H](C(C)C)C(=O)NCC(=O)N[C@H](C(=O)NCC(=O)O)CSCC(=O)N[C@@H](Cc2ccccc2)C(=O)N[C@@H](Cc2ccc(O)cc2)C(=O)N[C@@H](CC(=O)O)C1=O [Example 1023] ({CH2CO}-FYD[NHexGly]Y[Nle]GRL[Ahp(2)]PVGCG-OH; thioether N-14)
[2]
  IC50: 31 nM

## CCCCCCN1CC(=O)N[C@@H](Cc2ccc(O)cc2)C(=O)N[C@@H](CCCC)C(=O)N[C@@H](CC(=O)O)C(=O)N[C@@H](CCCNC(=N)N)C(=O)N[C@@H](CC(C)C)C(=O)N[C@@H](CCCCC)C(=O)N2CCC[C@H]2C(=O)N[C@@H](C(C)C)C(=O)N[C@@H](Cc2c[nH]c3ccccc23)C(=O)N[C@H](C(=O)NCC(=O)O)CSCC(=O)N[C@@H](Cc2ccccc2)C(=O)N[C@@H](Cc2ccc(O)cc2)C(=O)N[C@@H](CC(=O)O)C1=O [Example 1067] ({CH2CO}-FYD[NHexGly]Y[Nle]DRL[Ahp(2)]PVWCG-OH; thioether N-14)
[2]
  IC50: 28.9 nM

## CCCCCCN1CC(=O)N[C@@H](Cc2ccc(O)cc2)C(=O)N[C@@H](CCCC)C(=O)N[C@@H](CC(N)=O)C(=O)N[C@@H](CCCNC(=N)N)C(=O)N(C)[C@@H](CCCC)C(=O)N[C@@H](CCCCC)C(=O)N(C)[C@@H](C)C(=O)N[C@@H](C(C)C)C(=O)N[C@@H](CO)C(=O)N[C@H](C(=O)NCC(N)=O)CSCC(=O)N[C@@H](Cc2ccccc2)C(=O)N[C@@H](Cc2c[nH]c3ccccc23)C(=O)N[C@@H](CC(=O)O)C1=O [compound 1143] ({CH2CO}-FWD[NHexGly]Y[Nle]NR[NMeNle][Ahp(2)][NMeA]VSCG-NH2; thioether N-14)
read-out: HC CBA mVISTA IC50
  IC50: 17.6 nM
